Calls of active or inactive are those of the source. No cut-off for these calls is given here.
Tests used:
HepG2 = assay: Antiproliferative activity against human HepG2 cells assessed as cell proliferation after 72 hrs by MTT assay; format: functional; set-up: concentration or dose not given beside the values
MCF7 = assay: Antiproliferative activity against human MCF7 cells assessed as cell proliferation after 72 hrs by MTT assay; format: functional; set-up: concentration or dose not given beside the values
[1] = biological target: T1, Protein deacetylase HDAC6 (Homo sapiens, UniProt Q9UBN7); assay: Inhibition of HDAC6 in human HeLa cells assessed as inhibition of tubulin deacetylation incubated for overnight by cELISA; format: cell-based
T1 sequence (Q9UBN7 whole entry): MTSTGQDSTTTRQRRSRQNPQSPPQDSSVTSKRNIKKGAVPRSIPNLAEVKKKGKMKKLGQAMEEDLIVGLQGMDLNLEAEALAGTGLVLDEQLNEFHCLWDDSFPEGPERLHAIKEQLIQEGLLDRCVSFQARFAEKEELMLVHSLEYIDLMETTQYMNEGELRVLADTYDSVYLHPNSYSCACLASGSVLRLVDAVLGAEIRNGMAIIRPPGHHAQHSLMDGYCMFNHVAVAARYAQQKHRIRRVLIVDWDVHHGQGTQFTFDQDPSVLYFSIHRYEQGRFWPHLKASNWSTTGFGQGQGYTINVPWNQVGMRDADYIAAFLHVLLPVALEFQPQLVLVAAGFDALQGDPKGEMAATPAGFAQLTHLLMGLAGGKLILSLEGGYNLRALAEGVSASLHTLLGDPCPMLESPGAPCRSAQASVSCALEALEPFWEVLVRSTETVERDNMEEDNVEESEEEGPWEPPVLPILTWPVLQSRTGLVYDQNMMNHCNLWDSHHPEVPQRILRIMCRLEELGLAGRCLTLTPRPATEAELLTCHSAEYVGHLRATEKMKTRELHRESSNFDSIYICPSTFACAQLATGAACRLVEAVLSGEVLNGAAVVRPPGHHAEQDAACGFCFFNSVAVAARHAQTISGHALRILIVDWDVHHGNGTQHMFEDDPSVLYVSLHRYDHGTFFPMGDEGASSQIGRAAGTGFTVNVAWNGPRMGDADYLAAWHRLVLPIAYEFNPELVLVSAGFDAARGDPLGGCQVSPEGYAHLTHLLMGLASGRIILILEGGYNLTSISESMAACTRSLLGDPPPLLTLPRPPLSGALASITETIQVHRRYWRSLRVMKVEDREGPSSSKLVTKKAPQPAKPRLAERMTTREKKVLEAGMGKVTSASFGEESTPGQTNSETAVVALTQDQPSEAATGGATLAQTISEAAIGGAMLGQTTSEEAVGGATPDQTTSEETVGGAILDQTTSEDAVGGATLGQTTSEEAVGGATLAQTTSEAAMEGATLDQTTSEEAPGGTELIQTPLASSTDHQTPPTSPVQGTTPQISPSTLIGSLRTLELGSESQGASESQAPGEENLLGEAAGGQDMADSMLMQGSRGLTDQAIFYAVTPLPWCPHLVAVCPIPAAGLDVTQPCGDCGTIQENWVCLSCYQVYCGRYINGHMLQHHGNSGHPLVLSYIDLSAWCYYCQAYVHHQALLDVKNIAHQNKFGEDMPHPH

[2] = biological target: T1, Protein deacetylase HDAC6; assay: Inhibition of HDAC6 (unknown origin) by fluorimetric assay
[3] = Cytotoxicity against human MeT-5A cells; format: cell-based
Histone deacetylase 3 = Histone deacetylase 3 (Homo sapiens, UniProt O15379); assay: Inhibition of HDAC3 (unknown origin) by fluorimetric assay
[4] = biological target: T2, Histone deacetylase (Homo sapiens) (UniProt Q13547+O15379+Q9UBN7+Q92769+Q9UQL6+Q8WUI4+Q9BY41+Q96DB2+P56524+Q9UKV0+Q969S8); assay: Inhibition of HDAC in human MeT-5A cells assessed as hisone H3 acetylation after 16 hrs by BRET assay; format: cell-based
Homo sapiens [5] = species: Homo sapiens; assay: Selectivity index, ratio of IC50 for HDAC2 (unknown origin) to IC50 for HDAC6 (unknown origin)
[6] = biological target: T2, Histone deacetylase (Homo sapiens); conditions: HeLa, at 12.5 µM
Description: Inhibition of human HDAC in HeLa cells nuclear extract at 12.5 uM by fluorimetric assay

Histone deacetylase 2 = Histone deacetylase 2 (Homo sapiens, UniProt Q92769); assay: Inhibition of HDAC2 (unknown origin) by fluorimetric assay
Histone deacetylase 1 = Histone deacetylase 1 (Homo sapiens, UniProt Q13547); assay: Inhibition of HDAC1 (unknown origin) by fluorimetric assay
[7] = biological target: T2, Histone deacetylase (Homo sapiens); assay: Inhibition of HDAC in human MeT-5A cells assessed as hisone H3 acetylation at 100 uM after 16 hrs by BRET assay; format: cell-based
Homo sapiens [8] = species: Homo sapiens; assay: Selectivity index, ratio of IC50 for HDAC1 (unknown origin) to IC50 for HDAC6 (unknown origin)

Sequence of Histone deacetylase 3 (O15379 whole entry): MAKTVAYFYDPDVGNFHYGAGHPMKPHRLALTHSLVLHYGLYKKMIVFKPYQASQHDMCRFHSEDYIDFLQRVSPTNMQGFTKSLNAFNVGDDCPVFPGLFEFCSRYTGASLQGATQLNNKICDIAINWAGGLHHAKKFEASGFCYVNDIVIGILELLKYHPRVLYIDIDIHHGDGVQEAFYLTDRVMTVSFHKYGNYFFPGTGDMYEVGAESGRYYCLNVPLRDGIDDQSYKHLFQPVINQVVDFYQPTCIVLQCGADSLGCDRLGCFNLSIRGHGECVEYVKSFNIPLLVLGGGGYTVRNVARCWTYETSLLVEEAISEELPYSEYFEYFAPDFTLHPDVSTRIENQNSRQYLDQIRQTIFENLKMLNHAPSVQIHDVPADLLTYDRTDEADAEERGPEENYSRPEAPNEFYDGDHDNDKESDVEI
Sequence of Histone deacetylase 2 (Q92769 whole entry): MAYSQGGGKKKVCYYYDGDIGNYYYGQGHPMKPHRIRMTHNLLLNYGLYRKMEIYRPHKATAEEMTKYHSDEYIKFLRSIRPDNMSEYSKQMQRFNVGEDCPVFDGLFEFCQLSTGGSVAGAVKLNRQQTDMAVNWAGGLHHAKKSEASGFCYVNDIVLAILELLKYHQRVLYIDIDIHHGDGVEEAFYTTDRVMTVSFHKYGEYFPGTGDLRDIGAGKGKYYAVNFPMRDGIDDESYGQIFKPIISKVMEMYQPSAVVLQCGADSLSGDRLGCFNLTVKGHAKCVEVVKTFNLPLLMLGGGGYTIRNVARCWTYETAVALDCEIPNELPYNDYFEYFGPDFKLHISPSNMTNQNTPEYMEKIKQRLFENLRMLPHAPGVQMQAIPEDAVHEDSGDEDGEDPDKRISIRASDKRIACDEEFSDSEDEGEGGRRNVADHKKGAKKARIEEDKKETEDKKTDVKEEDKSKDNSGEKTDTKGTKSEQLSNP
Sequence of Histone deacetylase 1 (Q13547 whole entry): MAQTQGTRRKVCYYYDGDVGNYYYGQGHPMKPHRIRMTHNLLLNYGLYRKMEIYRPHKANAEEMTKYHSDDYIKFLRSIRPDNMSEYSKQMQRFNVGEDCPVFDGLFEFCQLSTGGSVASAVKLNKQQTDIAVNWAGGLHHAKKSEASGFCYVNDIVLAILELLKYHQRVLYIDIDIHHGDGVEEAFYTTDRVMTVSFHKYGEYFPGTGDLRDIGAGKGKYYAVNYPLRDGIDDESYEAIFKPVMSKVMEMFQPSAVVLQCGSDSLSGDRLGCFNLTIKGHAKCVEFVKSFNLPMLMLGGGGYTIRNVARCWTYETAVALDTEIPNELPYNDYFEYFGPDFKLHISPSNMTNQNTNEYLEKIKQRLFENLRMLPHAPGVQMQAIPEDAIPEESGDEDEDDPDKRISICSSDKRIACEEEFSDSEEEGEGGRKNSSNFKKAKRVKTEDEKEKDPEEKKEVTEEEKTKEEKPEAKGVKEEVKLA

Row | EC50 [1] | inhibition [4] | SMILES | Cell proliferation (HepG2) | Cell proliferation (MCF7) | Activity [3] | other results
1 | 1.1 µM |  | O=C(CCCCCCC(=O)NO)NO [SUBEROHYDROXAMIC ACID] | 107% | 93% | Non-toxic | IC50 [2]: 2.03 µM; IC50 (Histone deacetylase 3): 62.6 µM
2 | 5 µM | Active | CC(C)(C)OC(=O)ON(C(=O)CCCCCCC(=O)N(OC(=O)OC(C)(C)C)C(=O)OC(C)(C)C)C(=O)OC(C)(C)C | 108% | 92% | Non-toxic | IC50 [2]: 3.39 µM; Ratio IC50 (Homo sapiens [5]): 10; inhibition [6]: 60%; IC50 (Histone deacetylase 2): 29.8 µM; IC50 (Histone deacetylase 1): 30.6 µM; Activity [7]: 17 mU; Ratio IC50 (Homo sapiens [8]): 10; IC50 (Histone deacetylase 3): > 100 µM
3 |  | Active | Nc1ccccc1NC(=O)CCCCCCC(=O)Nc1ccccc1N | 114% | 92% | Non-toxic | 
4 |  | inactive | CC(C)(C)OC(=O)Nc1ccccc1NC(=O)CC/C=C/CCC(=O)Nc1ccccc1NC(=O)OC(C)(C)C |  |  |  | 
5 |  | inactive | CC(C)(C)OC(=O)Nc1ccccc1NC(=O)CCCCCCC(=O)Nc1ccccc1NC(=O)OC(C)(C)C | 136% | 87% |  | 

Second part, the molecule before the results:

Row | SMILES | EC50 [1] | inhibition [4] | Cell proliferation (HepG2) | Cell proliferation (MCF7) | Activity [3] | other results
6 | C=CCCC(=O)N(OC(=O)OC(C)(C)C)C(=O)OC(C)(C)C |  |  | 110% | 94% |  | 
7 | CC(C)(C)OC(=O)ON(C(=O)CC/C=C/CCC(=O)N(OC(=O)OC(C)(C)C)C(=O)OC(C)(C)C)C(=O)OC(C)(C)C | 17.7 µM | inactive | 138% | 100% | Non-toxic | 
8 | O=C(CCCCCCC(=O)Nc1ccccc1)NO [VORINOSTAT] |  |  |  |  | Non-toxic | 
9 | CC(=O)Nc1ccc(C(=O)Nc2ccccc2N)cc1 [TACEDINALINE] |  |  |  |  | Non-toxic | inhibition [6]: 42%
10 | C=CCCC(=O)Nc1ccccc1NC(=O)OC(C)(C)C |  |  | 142% | 50% |  | 

From ChEMBL document CHEMBL3739297, “Cross metathesis with hydroxamate and benzamide BOC-protected alkenes to access HDAC inhibitors and their biological evaluation highlighted intrinsic activity of BOC-protected dihydroxamates” (Bioorg Med Chem Lett, 2016)
